The text below walks through data of PubChem BioAssay (NCI).

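Method: 48-hour compound exposure of cells in 96-well plates, five concentrations, linear interpolation of endpoints. At the GI50, growth is halved. TGI marks complete inhibition of growth.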

Some test systems named below: UACC-62 melanoma; SK-OV-3 ovarian; T-47D breast; SK-MEL-28 melanoma; SK-MEL-2 melanoma; HCC-2998 colon; SR leukemia; OVCAR-3 ovarian.
Test in all cases: NCI-60 cell line screen, 48 h

As to `COc1cccc(F)c1C(=O)c1cnc(NC2CCN(S(C)(=O)=O)CC2)nc1N`, the GI50 with UACC-62 melanoma is 2.66 µM; with SK-OV-3 ovarian it was 13 µM; in the test on T-47D breast, 5.22 µM; with SK-MEL-28 melanoma, 3.43 µM; with SK-MEL-2 melanoma, 3.43 µM; in the test on HCC-2998 colon it was 4.75 µM. The GI50 in the test on SR leukemia was 0.644 µM; in the test on OVCAR-3 ovarian, 4.6 µM. Also, the TGI with UACC-62 melanoma was 9.42 µM; in the test on SK-OV-3 ovarian it was more than 25 µM; with T-47D breast, 24.4 µM; in the test with SK-MEL-28 melanoma, more than 20.8 µM; in the test with SK-MEL-2 melanoma, 9.94 µM; in the test on HCC-2998 colon it was more than 25 µM. Besides, the TGI in the test on SR leukemia was more than 11.8 µM; in the test with OVCAR-3 ovarian, 19 µM.

For the compound `COc1cc(-c2oc(=O)ccc2C#Cc2ccccn2)cc(OC)c1OC`, the GI50 with UACC-62 melanoma is 1.82 µM; in the test on SK-OV-3 ovarian, 3.43 µM; in the test with T-47D breast, 3.46 µM; in the test with SK-MEL-28 melanoma, 3.34 µM; in the test on SK-MEL-2 melanoma it was 4.15 µM; with HCC-2998 colon it was 0.236 µM. In addition, the GI50 in the test on SR leukemia is 0.257 µM; in the test on OVCAR-3 ovarian it was 0.733 µM. Also, the TGI in the test on UACC-62 melanoma was more than 20.1 µM; with SK-OV-3 ovarian it was 97.7 µM; in the test on T-47D breast, more than 41.8 µM; in the test on SK-MEL-28 melanoma it was more than 100 µM; with SK-MEL-2 melanoma, more than 100 µM; with HCC-2998 colon, 4.6 µM. Further, the TGI with SR leukemia was more than 39.9 µM; in the test with OVCAR-3 ovarian, 2.76 µM.

Take `Cn1c(I)c(C#CCO[Si](C)(C)C(C)(C)C)c(=O)[nH]c1=O`: the GI50 in the test with UACC-62 melanoma was 17.2 µM; in the test on SK-OV-3 ovarian it was more than 100 µM; with T-47D breast it was 2.92 µM; in the test on SK-MEL-28 melanoma, 2.95 µM; with SK-MEL-2 melanoma, 13.9 µM; in the test with HCC-2998 colon, 18.6 µM. Further, the GI50 in the test on SR leukemia is 1.53 µM; in the test with OVCAR-3 ovarian it was 6.49 µM. For the same compound, the TGI in the test on UACC-62 melanoma was 32.2 µM; in the test with SK-OV-3 ovarian, more than 100 µM; in the test with T-47D breast, 15 µM; with SK-MEL-28 melanoma it was 9.05 µM; in the test on SK-MEL-2 melanoma, 27.7 µM; with HCC-2998 colon it was 34.7 µM. Besides, the TGI in the test with SR leukemia was 3.6 µM; in the test on OVCAR-3 ovarian, 16.2 µM.

Consider `CCN(CC)CCC(CNc1ccnc2cc(Cl)ccc12)c1ccc(Cl)cc1` (stereo unspecified), for which the GI50 is 1.18 µM in the test with UACC-62 melanoma; 2.1 µM with SK-OV-3 ovarian; 1.92 µM in the test with T-47D breast; 0.763 µM with SK-MEL-28 melanoma; 1.57 µM with SK-MEL-2 melanoma; 0.642 µM in the test on HCC-2998 colon. Further, the GI50 in the test with SR leukemia is 0.311 µM; in the test with OVCAR-3 ovarian it was 1.96 µM. Besides, the TGI with UACC-62 melanoma is 2.69 µM; with SK-OV-3 ovarian, 5.4 µM; in the test with T-47D breast, 4.21 µM; in the test on SK-MEL-28 melanoma, 2.06 µM; with SK-MEL-2 melanoma, 3.18 µM; in the test on HCC-2998 colon, 2.03 µM. For the same compound, the TGI worked out at 1.48 µM with SR leukemia and 5.98 µM in the test with OVCAR-3 ovarian.

In the case of `C=C1C(=O)OC2CC(C)C(C(CC(C)=O)OC(C)=O)=CCC12` (stereo unspecified), the TGI in the test on UACC-62 melanoma is 25.4 µM; in the test on SK-OV-3 ovarian, more than 100 µM; in the test with T-47D breast it was 42 µM; in the test on SK-MEL-28 melanoma, 24.1 µM; in the test with SK-MEL-2 melanoma, 40.8 µM; in the test with HCC-2998 colon, 24.1 µM. In addition, the results for the TGI with SR leukemia and with OVCAR-3 ovarian were 15.5 µM and 20.3 µM, respectively.

For the compound `COC(=O)c1ccc2c(c1)nc(NC(=O)c1ccccc1)n2CCCc1ccccc1`, the GI50 is 2.49 µM in the test with UACC-62 melanoma; 7.63 µM with SK-OV-3 ovarian; 4.35 µM with T-47D breast; 3.79 µM in the test with SK-MEL-28 melanoma; 5.58 µM in the test with SK-MEL-2 melanoma; 30.6 µM in the test with HCC-2998 colon. Moreover, the GI50 is 2.54 µM with SR leukemia and 7.29 µM in the test with OVCAR-3 ovarian. The TGI in the test with UACC-62 melanoma was more than 27 µM; in the test with SK-OV-3 ovarian, more than 100 µM; in the test on T-47D breast, more than 100 µM; in the test on SK-MEL-28 melanoma, more than 100 µM; in the test with SK-MEL-2 melanoma, more than 100 µM; with HCC-2998 colon it was more than 100 µM. Also, the TGI with SR leukemia and with OVCAR-3 ovarian was more than 100 µM in each case.

Take `O=C(Nc1ccc(Br)cc1F)c1cc(F)ccc1O`: the GI50 was 0.285 µM with UACC-62 melanoma; 0.405 µM in the test on SK-OV-3 ovarian; 0.511 µM in the test on T-47D breast; 0.377 µM in the test with SK-MEL-28 melanoma; 0.398 µM in the test on SK-MEL-2 melanoma; 2.37 µM with HCC-2998 colon. In addition, the GI50 in the test with SR leukemia was 0.476 µM; in the test on OVCAR-3 ovarian it was 0.411 µM. In addition, the TGI with UACC-62 melanoma turned out to be 1 µM; in the test with SK-OV-3 ovarian, 2.55 µM; with T-47D breast it was 5.59 µM; with SK-MEL-28 melanoma it was 1.84 µM; in the test on SK-MEL-2 melanoma it was 2.56 µM; with HCC-2998 colon, 8.45 µM. Further, the TGI with SR leukemia was more than 100 µM; with OVCAR-3 ovarian, 6.64 µM.

On to `COC(=O)COc1ccccc1/C=C1\N=C(c2ccccc2)N(c2cc(C(F)(F)F)ccc2Cl)C1=O`, for which the GI50 with UACC-62 melanoma was more than 100 µM; in the test with SK-OV-3 ovarian, 57.7 µM; with T-47D breast, 29.1 µM; in the test with SK-MEL-28 melanoma, 47.6 µM; in the test with SK-MEL-2 melanoma, 28.5 µM; in the test on HCC-2998 colon, 36.3 µM. Besides, the values for the GI50 with SR leukemia and in the test with OVCAR-3 ovarian were 24 µM and 34 µM, respectively. The TGI in the test on UACC-62 melanoma, with SK-OV-3 ovarian, in the test with T-47D breast, in the test on SK-MEL-28 melanoma, in the test on SK-MEL-2 melanoma and in the test with HCC-2998 colon was more than 100 µM throughout. Also, the TGI in the test on SR leukemia came out at 70.5 µM; in the test with OVCAR-3 ovarian it was 98.6 µM.

For `CSC1=Nc2c(c(C)c(C)n2COC(CO)CO)C2=NC(=O)C(C)N12` (stereo unspecified), the GI50 with UACC-62 melanoma, in the test with SK-OV-3 ovarian, with T-47D breast, in the test on SK-MEL-28 melanoma, with SK-MEL-2 melanoma and in the test with HCC-2998 colon was more than 100 µM each time. Moreover, the figures for the GI50 with SR leukemia and in the test with OVCAR-3 ovarian were 2.48 µM and more than 100 µM, respectively. Besides, the TGI with UACC-62 melanoma, in the test with SK-OV-3 ovarian, in the test with T-47D breast, in the test on SK-MEL-28 melanoma, with SK-MEL-2 melanoma and in the test on HCC-2998 colon was more than 100 µM in each case. Also, the TGI in the test on SR leukemia and with OVCAR-3 ovarian was more than 100 µM each time.
